For seven compounds, solubility results are on record in patent US20230143604A1, “QW DOSING OF GIP RECEPTOR AGONIST PEPTIDE COMPOUNDS AND USES THEREOF” (TAKEDA PHARMACEUTICAL COMPANY LIMITED, priority 2020, published 2023).

This data set in a line: physchem. On the procedure: Solubility of the GIPR peptides may be determined by dissolution in a phosphate buffer followed by quantitation using liquid chromatography, for example, High Performance Liquid Chromatogry (HPLC). An illustrative method is provided. For determination of the solubility of the GIPr agonist peptides, 3 mg of peptides are weighted out in a small glass vial. 100 μL of 200 mM Phosphate buffer pH 7.4 are added and the vial is sonicated/votexed as necessary for a maximum of 1 min. […] If insoluble material is observed in the tube the addition of 100 μL of buffer and mixing is repeated until complete dissolution.
3 mg of peptides are weighted out in a small glass vial. 100 uL of 200 mM Phosphate buffer pH 7.4 are added and the vial is sonicated/votexed as necessary for a maximum of 1 min. […] If insoluble material is observed in the tube the addition of 100 uL of buffer and mixing is repeated until complete dissolution.

[1] abbreviates: pH 7.4, aqueous buffer, pH 7.4 Phosphate Buffer - Solubility, 200 mM Phosphate buffer pH 7.4.
[2] abbreviates: pH 7.4, solubility in phosphate buffer at pH 7.4, 200 mM phosphate buffer pH 7.4.

Starred links: 1 amine or outer side, 2 acyl side, 3 side chain; linkers in the order of their positions; H or OH if unused. Non-standard residues stand in square brackets, D forms with d. Residues, ends and D or L forms follow the SMILES beside them. Groups on a side chain read outwards from the residue. *: point of attachment. C18 diacid = O=C(O)CCCCCCCCCCCCCCCCC(=O)*; C17 diacid = O=C(O)CCCCCCCCCCCCCCCC(=O)*; γGlu = O=C(O)[C@H](CCC(=O)[*:2])N[*:1]; NMeY = CN[C@@H](Cc1ccc(O)cc1)C(=O)O; AEEA = NCCOCCOCC(=O)O; Aib = CC(C)(N)C(=O)O Bounds are passed on as bounds.

As for `CC[C@H](C)[C@H](NC(=O)[C@H](CO)NC(=O)[C@H](Cc1ccc(O)cc1)NC(=O)[C@H](CC(=O)O)NC(=O)[C@H](CO)NC(=O)[C@@H](NC(=O)[C@H](Cc1ccccc1)NC(=O)[C@@H](NC(=O)CNC(=O)[C@H](CCC(=O)O)NC(=O)C(C)(C)NC(=O)[C@H](Cc1ccc(O)cc1)NC)[C@@H](C)O)[C@@H](C)CC)C(=O)N[C@@H](C)C(=O)N[C@@H](CC(C)C)C(=O)N[C@@H](CC(=O)O)C(=O)N[C@@H](CCCNC(=N)N)C(=O)N[C@H](C(=O)N[C@@H](Cc1c[nH]cn1)C(=O)N[C@@H](CCC(N)=O)C(=O)N[C@@H](CCC(N)=O)C(=O)N[C@@H](CC(N)=O)C(=O)N[C@@H](Cc1ccccc1)C(=O)N[C@H](C(=O)N[C@@H](CC(N)=O)C(=O)N[C@@H](Cc1c[nH]c2ccccc12)C(=O)N[C@@H](CC(C)C)C(=O)N[C@@H](CC(C)C)C(=O)N[C@@H](C)C(=O)N[C@@H](CCC(N)=O)C(=O)N[C@@H](CCCCNC(=O)COCCOCCNC(=O)COCCOCCNC(=O)CC[C@H](NC(=O)CCCCCCCCCCCCCCCCC(=O)O)C(=O)O)C(N)=O)C(C)C)[C@@H](C)CC` [Compound 5] (H-[NMeY][Aib]EGTFISDYSIALDRIHQQNFVNWLLAQK([AEEA-AEEA-γGlu-C18 diacid])-NH2), the solubility is, setting by setting: (pH 7.4) at least 15 mg/mL; (pH 7.4, aqueous buffer) at least 27 mg/mL.

In the case of `CC[C@H](C)[C@H](NC(=O)[C@H](CO)NC(=O)[C@H](Cc1ccc(O)cc1)NC(=O)[C@H](CC(=O)O)NC(=O)[C@H](CO)NC(=O)[C@@H](NC(=O)[C@H](Cc1ccccc1)NC(=O)[C@@H](NC(=O)CNC(=O)[C@H](CCC(=O)O)NC(=O)C(C)(C)NC(=O)[C@H](Cc1ccc(O)cc1)NC)[C@@H](C)O)[C@@H](C)CC)C(=O)N[C@@H](C)C(=O)N[C@@H](CCCCNC(=O)COCCOCCNC(=O)COCCOCCNC(=O)CC[C@H](NC(=O)CCCCCCCCCCCCCCCCC(=O)O)C(=O)O)C(=O)N[C@@H](CC(=O)O)C(=O)N[C@@H](CCCNC(=N)N)C(=O)NC(C)(C)C(=O)N[C@@H](C)C(=O)N[C@@H](CCC(N)=O)C(=O)NC(C)(C)C(=O)N[C@@H](CC(N)=O)C(=O)N[C@@H](Cc1ccccc1)C(=O)N[C@H](C(=O)N[C@@H](CC(N)=O)C(=O)N[C@@H](Cc1c[nH]c2ccccc12)C(=O)N[C@@H](CC(C)C)C(=O)N[C@@H](CC(C)C)C(=O)N[C@@H](C)C(=O)N[C@@H](CCC(N)=O)C(=O)N[C@@H](CCCCN)C(N)=O)C(C)C` [Compound 6] (H-[NMeY][Aib]EGTFISDYSIAK([AEEA-AEEA-γGlu-C18 diacid])DR[Aib]AQ[Aib]NFVNWLLAQK-NH2), for the setting “pH 7.4, aqueous buffer”, the solubility is at least 15 mg/mL.

For `CC[C@H](C)[C@H](NC(=O)[C@H](CO)NC(=O)[C@H](Cc1ccc(O)cc1)NC(=O)[C@H](CC(=O)O)NC(=O)[C@H](CO)NC(=O)[C@@H](NC(=O)[C@H](Cc1ccccc1)NC(=O)[C@@H](NC(=O)CNC(=O)[C@H](CCC(=O)O)NC(=O)C(C)(C)NC(=O)[C@H](Cc1ccc(O)cc1)NC)[C@@H](C)O)[C@@H](C)CC)C(=O)N[C@@H](C)C(=O)N[C@@H](CCCCNC(=O)COCCOCCNC(=O)COCCOCCNC(=O)CC[C@H](NC(=O)CC[C@H](NC(=O)CCCCCCCCCCCCCCCC(=O)O)C(=O)O)C(=O)O)C(=O)N[C@@H](CC(=O)O)C(=O)N[C@@H](CCCNC(=N)N)C(=O)NC(C)(C)C(=O)N[C@@H](C)C(=O)N[C@@H](CCC(N)=O)C(=O)NC(C)(C)C(=O)N[C@@H](CC(N)=O)C(=O)N[C@@H](Cc1ccccc1)C(=O)N[C@H](C(=O)N[C@@H](CC(N)=O)C(=O)N[C@@H](Cc1c[nH]c2ccccc12)C(=O)N[C@@H](CC(C)C)C(=O)N[C@@H](CC(C)C)C(=O)N[C@@H](C)C(=O)N[C@@H](CCC(N)=O)C(=O)N[C@@H](CCCNC(=N)N)C(=O)O)C(C)C` [Compound 7] (H-[NMeY][Aib]EGTFISDYSIAK([AEEA-AEEA-γGlu-γGlu-C17 diacid])DR[Aib]AQ[Aib]NFVNWLLAQR-OH), the solubility was at least 15 mg/mL (pH 7.4) and at least 30 mg/mL (pH 7.4, aqueous buffer).

`CC[C@H](C)[C@H](NC(=O)[C@H](CO)NC(=O)[C@H](Cc1ccc(O)cc1)NC(=O)[C@H](CC(=O)O)NC(=O)[C@H](CO)NC(=O)[C@@H](NC(=O)[C@H](Cc1ccccc1)NC(=O)[C@@H](NC(=O)CNC(=O)[C@H](CCC(=O)O)NC(=O)C(C)(C)NC(=O)[C@H](Cc1ccc(O)cc1)NC)[C@@H](C)O)[C@@H](C)CC)C(=O)N[C@@H](C)C(=O)N[C@@H](CC(C)C)C(=O)N[C@@H](CC(=O)O)C(=O)N[C@@H](CCCNC(=N)N)C(=O)NC(C)(C)C(=O)N[C@@H](C)C(=O)N[C@@H](CCC(N)=O)C(=O)NC(C)(C)C(=O)N[C@@H](CCCCNC(=O)COCCOCCNC(=O)COCCOCCNC(=O)CC[C@H](NC(=O)CC[C@H](NC(=O)CCCCCCCCCCCCCCCC(=O)O)C(=O)O)C(=O)O)C(=O)N[C@@H](Cc1ccccc1)C(=O)N[C@H](C(=O)N[C@@H](CC(N)=O)C(=O)N[C@@H](Cc1c[nH]c2ccccc12)C(=O)N[C@@H](CC(C)C)C(=O)N[C@@H](CC(C)C)C(=O)N[C@@H](C)C(=O)N[C@@H](CCC(N)=O)C(=O)N[C@@H](CCCNC(=N)N)C(=O)O)C(C)C` [Compound 9] (H-[NMeY][Aib]EGTFISDYSIALDR[Aib]AQ[Aib]K([AEEA-AEEA-γGlu-γGlu-C17 diacid])FVNWLLAQR-OH) gave a solubility (pH 7.4) of at least 15 mg/mL and a solubility (pH 7.4, aqueous buffer) of at least 30 mg/mL.

`CC[C@H](C)[C@H](NC(=O)[C@H](CO)NC(=O)[C@H](Cc1ccc(O)cc1)NC(=O)[C@H](CC(=O)O)NC(=O)[C@H](CO)NC(=O)[C@@H](NC(=O)[C@H](Cc1ccccc1)NC(=O)[C@@H](NC(=O)CNC(=O)[C@H](CCC(=O)O)NC(=O)C(C)(C)NC(=O)[C@H](Cc1ccc(O)cc1)NC)[C@@H](C)O)[C@@H](C)CC)C(=O)N[C@@H](C)C(=O)N[C@@H](CCCCNC(=O)COCCOCCNC(=O)COCCOCCNC(=O)CC[C@H](NC(=O)CCCCCCCCCCCCCCCC(=O)O)C(=O)O)C(=O)N[C@@H](CC(=O)O)C(=O)N[C@@H](CCCNC(=N)N)C(=O)NC(C)(C)C(=O)N[C@@H](C)C(=O)N[C@@H](CCC(N)=O)C(=O)NC(C)(C)C(=O)N[C@@H](CC(N)=O)C(=O)N[C@@H](Cc1ccccc1)C(=O)N[C@H](C(=O)N[C@@H](CC(N)=O)C(=O)N[C@@H](Cc1c[nH]c2ccccc12)C(=O)N[C@@H](CC(C)C)C(=O)N[C@@H](CC(C)C)C(=O)N[C@@H](C)C(=O)N[C@@H](CCC(N)=O)C(=O)N[C@@H](CO)C(=O)O)C(C)C` [Compound 10] (H-[NMeY][Aib]EGTFISDYSIAK([AEEA-AEEA-γGlu-C17 diacid])DR[Aib]AQ[Aib]NFVNWLLAQS-OH): the solubility runs as follows: (pH 7.4) at least 15 mg/mL; (pH 7.4, aqueous buffer) at least 30 mg/mL.

As for `CC[C@H](C)[C@H](NC(=O)[C@H](CO)NC(=O)[C@H](Cc1ccc(O)cc1)NC(=O)[C@H](CC(=O)O)NC(=O)[C@H](CO)NC(=O)[C@@H](NC(=O)[C@H](Cc1ccccc1)NC(=O)[C@@H](NC(=O)CNC(=O)[C@H](CCC(=O)O)NC(=O)C(C)(C)NC(=O)[C@H](Cc1ccc(O)cc1)NC)[C@@H](C)O)[C@@H](C)CC)C(=O)N[C@@H](C)C(=O)N[C@@H](CCCCNC(=O)CC[C@H](NC(=O)CC[C@H](NC(=O)CC[C@H](NC(=O)CCCCCCCCCCCCCCCC(=O)O)C(=O)O)C(=O)O)C(=O)O)C(=O)N[C@@H](CC(=O)O)C(=O)N[C@@H](CCCNC(=N)N)C(=O)NC(C)(C)C(=O)N[C@@H](C)C(=O)N[C@@H](CCC(N)=O)C(=O)NC(C)(C)C(=O)N[C@@H](CC(N)=O)C(=O)N[C@@H](Cc1ccccc1)C(=O)N[C@H](C(=O)N[C@@H](CC(N)=O)C(=O)N[C@@H](Cc1c[nH]c2ccccc12)C(=O)N[C@@H](CC(C)C)C(=O)N[C@@H](CC(C)C)C(=O)N[C@@H](C)C(=O)N[C@@H](CCC(N)=O)C(=O)N[C@@H](CO)C(=O)N1CCC[C@H]1C(=O)N[C@@H](CO)C(=O)N[C@@H](CO)C(=O)NCC(=O)N[C@@H](C)C(=O)N1CCC[C@H]1C(=O)N1CCC[C@H]1C(=O)N1CCC[C@H]1C(=O)N[C@@H](CO)C(N)=O)C(C)C` [Compound 12] (H-[NMeY][Aib]EGTFISDYSIAK([γGlu-γGlu-γGlu-C17 diacid])DR[Aib]AQ[Aib]NFVNWLLAQSPSSGAPPPS-NH2), the solubility under setting [1] was at least 30 mg/mL and the solubility under setting [2] is at least 15 mg/mL.

On to `CC[C@H](C)[C@H](NC(=O)[C@H](Cc1ccccc1)NC(=O)[C@@H](NC(=O)CNC(=O)[C@H](CCC(=O)O)NC(=O)C(C)(C)NC(=O)[C@H](Cc1ccc(O)cc1)NC)[C@@H](C)O)C(=O)N[C@@H](CO)C(=O)N[C@@H](CC(=O)O)C(=O)N[C@@H](Cc1ccc(O)cc1)C(=O)N[C@@H](CO)C(=O)N[C@H](C(=O)NC(C)(C)C(=O)N[C@@H](CCCCNC(=O)COCCOCCNC(=O)COCCOCCNC(=O)CC[C@H](NC(=O)CC[C@H](NC(=O)CCCCCCCCCCCCCCCC(=O)O)C(=O)O)C(=O)O)C(=O)N[C@@H](CC(=O)O)C(=O)N[C@@H](CCCNC(=N)N)C(=O)NC(C)(C)C(=O)N[C@@H](C)C(=O)N[C@@H](CCC(N)=O)C(=O)NC(C)(C)C(=O)N[C@@H](CC(N)=O)C(=O)N[C@@H](Cc1ccccc1)C(=O)N[C@H](C(=O)N[C@@H](CC(N)=O)C(=O)N[C@@H](Cc1c[nH]c2ccccc12)C(=O)N[C@@H](CC(C)C)C(=O)N[C@@H](CC(C)C)C(=O)N[C@@H](C)C(=O)N[C@@H](CCC(N)=O)C(=O)N[C@@H](CCCNC(=N)N)C(=O)N1CCC[C@H]1C(=O)N[C@@H](CO)C(=O)N[C@@H](CO)C(=O)NCC(=O)N[C@@H](C)C(=O)N1CCC[C@H]1C(=O)N1CCC[C@H]1C(=O)N1CCC[C@H]1C(=O)N[C@@H](CO)C(N)=O)C(C)C)[C@@H](C)CC` [Compound 14] (H-[NMeY][Aib]EGTFISDYSI[Aib]K([AEEA-AEEA-γGlu-γGlu-C17 diacid])DR[Aib]AQ[Aib]NFVNWLLAQRPSSGAPPPS-NH2), for which the solubility was at least 30 mg/mL under setting [1] and at least 15 mg/mL under setting [2].

What is called solubility is how much of the substance goes into solution per volume. Lower therefore signals little dissolved substance.
